Assay [1] concerns NALM6-luciferase tumor-bearing mice. Kind of assay: T1-weighted MR imaging of NALM6-luciferase tumor-bearing mice (CNS-L). The class given is in vivo, NOD/SCID mice. The following applies: 0.03 mmol of Gd/kg, tail vein, 3.0 T, baseline and 5, 10, 15 min post-injection. The method, then: The human ALL cell lines including NALM6, Reh, Jurkat, and CCRF-CEM were purchased from the American Type Culture Collection (ATCC) and cultured in RPMI 1640 medium supplemented with 10% fetal bovine serum and 0.5% penicillin–streptomycin and incubated at 37 °C/5%CO2. To facilitate tumor monitoring, luminescent cells NALM6-luciferase were generated by stable transfection with luciferase. Female NOD/SCID mice (6 weeks old) were purchased from Vita River, Charles River Laboratories, China (Beijing, China). NOD/SCID mice were injected via the tail vein with 1 × 10^6 luciferased cells suspended in 150 µl of sterile phosphate-buffered saline (PBS). Bioluminescence imaging was applied to monitor the leukemic burden. All animal experiments were approved by the Institutional Animal Care and Use Committee (IACUC) at the Sun Yat-sen University Cancer Center (IACUC approval number L102012020070M), and the welfare and treatment of the laboratory animals were in accordance with the corresponding animal management regulations.
Bioluminescence confirmed CNS-L mice were used for MR and PET imaging studies in the next few days after the NIRF imaging. MR imaging was performed using a Philips Achieva 3.0 T system. Mice were anesthetized with 2,2,2-Tribromoethanol ([…]), fixed on the holder, and placed into the mouse-imaging coil. […]

Assay [2] has as its system NALM6 cells. Nature of the assay: Immunofluorescence / confocal microscopy of S5 peptide in NALM6 cells. The class given is cell-based, human. The method, then:
Approximately 1 × 10^6 NALM6 cells were seeded on cover slips in 24-well plates and incubated for 24 h. Subsequently, the 80 μM S5 peptide was added into the culture medium and incubated with cells for 4 h, while the blank control group was added to the same volume of RPMI 1640 medium. After that, cells of each group were washed with PBS five times, fixed with 4% paraformaldehyde for 15 min, permeabilized with 0.1% Triton X-100 (Sigma-Aldrich, Germany), and blocked with 1% BSA for 30 min. The cover slips were incubated with the anti-integrin α6 antibody (Abcam, ab181551) at 4°C overnight, followed by incubation with streptavidin-Cy3 (Thermo Fisher 434315, United States) and the goat anti-mouse Alexa Fluor 488 secondary antibody (Abcam, ab150113) for 1 h at room temperature in a dark chamber. Finally, cover slips were incubated with 1 μg/ml DAPI and mounted with slides with ProLong gold antifade (Invitrogen P26930, United States). Fluorescence images were visualized and captured under a confocal microscopy confocal laser-scanning system (Zeiss, LSM980, Germany) at 40× and 100× magnification. Co-localization was analyzed by ImageJ (http://rsbweb.nih.gov/ij/) and the co-localization finder plug-in.

Assay [3] deals with integrin α6. The settings on record: cited from earlier work. From the text: We further translated the RWY peptide into an integrin α6-targeted PET probe and MRI probe that have been successfully applied for tumor imaging of the integrin α6 expression ([Feng GK et al., 2019]; [Xiao et al., 2019]; [Zhang Y et al., 2020]; [Gao et al., 2020]). Recently, our group improved the characteristics of the peptide by alanine scanning and obtained a novel integrin α6-targeting peptide […] (dubbed S5) which ...

Assay [4] concerns Human ITGA6 & ITGB4 Heterodimer Protein. Kind of assay: Microscale thermophoresis affinity of S5 peptides. The class given is binding. The following applies: cyclic vs straight S5 peptide; preliminary experiments, Supplementary Figures S2A, S2B; MST, Monolith NT.115, protein 100 nM, peptide from 100 uM diluted 1:1, PBST, 80 % LED/excitation power, medium MST power. The method, then:
The affinity of cyclic S5 peptide, straight S5 peptide, NOTA-S5 and Gd-S5 with Human ITGA6 & ITGB4 Heterodimer Protein (Manufactured by Sino Biological Catalog Number: CT069-H2508H) was determined by microscale thermophoresis (MST). Firstly, 0.05% PBST was prepared, 25ul of Tween 20 was added to 50ml of PBS and filtered through 0.22um filter paper. Then dilute the peptide: dissolve the above 4 peptides into 1mM storage solution concentration. Take 20 ul of peptide and mix with 80 ul of PBST and dilute to a working concentration of […]. Next dilute the dye: Take 2 µL of RED-tris-NTA II dye (Manufactured by NanoTemper Cat# MO-L018 5 µM) and mix with 98 µl of PBST to obtain 100 µL of dye (100 nM). Finally, 100 ul of Human ITGA6 & ITGB4 Heterodimer Protein (400 nM) was mixed with 100 ul of dye (100 nM) and incubated at room temperature for 30 min, at which time the protein concentration was 200 nM. 10 ul of peptide (200 uM) was added to the PCR tube, and 16 tubes were diluted 1:1 with PBST. Then take 3 ul of protein/dye mixture in the PCR tube, add 3 ul of […] concentrations of peptide and mix well. The concentration of protein was 100 nM and the concentration of peptide in the first tube was 100 uM. […] Kd was calculated by Kd fitting mode using MO.Affinity Analysis.
A general note: Microscale thermophoresis detects binding through changes in fluorescence in a small temperature gradient.

As for `O=C([O-])CN(CCN(CC(=O)[O-])CC(=O)O)CCN(CC(=O)[O-])CC(=O)O.[Gd+3]` [Gd-DTPA, gadolinium-diethylenetriamine pentaacetic acid], the MR enhancement signals result in assay [1] is listed as “did not show obvious enhancement signals”.
In the case of CRWYDANAC [S5], in assay [2] (80 μM S5 peptide, 4 h, green fluorescence), the “cellular uptake of the S5 peptide” value is on record as “entered the cytoplasm through cytocytosis after binding to the cell membrane”. In addition, the “cellular localization of the S5 peptide” value in assay [2] (80 μM S5 peptide, 4 h of co-culturing, fluorescence microscopy) was “enriched and localized at the nuclei of NALM6 cells”. Further, the “location of integrin α6 and the S5 peptide confirmed by confocal microscopy (Discussion)” value in assay [2] (NALM6 cells, as summarised in Discussion) was “dominating membrane location”. The “specificity and affinity to integrin α6” value in assay [3] (vs RWY, obtained by alanine scanning, ref Mei et al., 2020, Lin et al., 2021) is “higher specificity and affinity”. In addition, the “binding of cyclic and straight peptides compared” value in assay [4] is reported as “equivalent”.
For CRWYDENAC [reference compound], in assay [3] (identified by phage display technology, ref Feng G et al., 2019), the “binding to integrin α6” value is given as “could bind specifically to integrin α6”.

The values are drawn from PMC8905628, “Integrin α6-Targeted Molecular Imaging of Central Nervous System Leukemia in Mice” (Frontiers in Bioengineering and Biotechnology, 2022).
